According to ChEMBL document CHEMBL3880381, “Selective inhibitors of aggrecanase in osteoarthritis treatment” (2001):

Legend:
Interstitial collagenase = target: T1, Interstitial collagenase (Homo sapiens, UniProt P03956); test: Inhibition of trypsin-activated recombinant human collagenase 1 preincubated with protein followed by addition of DNP-Pro-Cha-Gly-Cys(Me)-His-Ala-Lys(NMA)-NH2 as substrate measured after 20 mins by fluorescence analysis
T1 sequence (P03956 whole entry): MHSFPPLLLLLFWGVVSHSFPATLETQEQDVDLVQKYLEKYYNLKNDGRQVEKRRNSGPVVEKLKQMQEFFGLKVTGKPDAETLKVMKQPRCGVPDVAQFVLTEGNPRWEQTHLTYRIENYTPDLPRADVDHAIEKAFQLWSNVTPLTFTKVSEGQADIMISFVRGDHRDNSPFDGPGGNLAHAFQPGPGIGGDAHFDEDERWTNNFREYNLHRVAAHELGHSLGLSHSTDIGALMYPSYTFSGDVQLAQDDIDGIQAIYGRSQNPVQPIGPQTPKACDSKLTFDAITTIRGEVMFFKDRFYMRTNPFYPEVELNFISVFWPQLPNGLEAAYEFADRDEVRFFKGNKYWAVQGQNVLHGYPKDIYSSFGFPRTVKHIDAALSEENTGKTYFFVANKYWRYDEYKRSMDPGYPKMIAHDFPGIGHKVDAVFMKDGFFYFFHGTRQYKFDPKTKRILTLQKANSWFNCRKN

Collagenase 3 = Collagenase 3 (Homo sapiens, UniProt P45452); test: Inhibition of APMA-activated recombinant human collagenase 3 preincubated with protein followed by addition of DNP-Pro-Cha-Gly-Cys(Me)-His-Ala-Lys(NMA)-NH2 as substrate measured every 5 mins for 1 hr by fluorescence analysis
Aggrecanase = target: T2, Aggrecanase (Sus scrofa, UniProt F1S1A7+F1SHP0); test: Inhibition of aggrecanase in primary porcine chondrocytes assessed as inhibition of 35S-proteoglycan release measured after 9 to 12 hrs by liquid scintillation counting method; type: cell-based
T2 sequence (F1S1A7 whole entry): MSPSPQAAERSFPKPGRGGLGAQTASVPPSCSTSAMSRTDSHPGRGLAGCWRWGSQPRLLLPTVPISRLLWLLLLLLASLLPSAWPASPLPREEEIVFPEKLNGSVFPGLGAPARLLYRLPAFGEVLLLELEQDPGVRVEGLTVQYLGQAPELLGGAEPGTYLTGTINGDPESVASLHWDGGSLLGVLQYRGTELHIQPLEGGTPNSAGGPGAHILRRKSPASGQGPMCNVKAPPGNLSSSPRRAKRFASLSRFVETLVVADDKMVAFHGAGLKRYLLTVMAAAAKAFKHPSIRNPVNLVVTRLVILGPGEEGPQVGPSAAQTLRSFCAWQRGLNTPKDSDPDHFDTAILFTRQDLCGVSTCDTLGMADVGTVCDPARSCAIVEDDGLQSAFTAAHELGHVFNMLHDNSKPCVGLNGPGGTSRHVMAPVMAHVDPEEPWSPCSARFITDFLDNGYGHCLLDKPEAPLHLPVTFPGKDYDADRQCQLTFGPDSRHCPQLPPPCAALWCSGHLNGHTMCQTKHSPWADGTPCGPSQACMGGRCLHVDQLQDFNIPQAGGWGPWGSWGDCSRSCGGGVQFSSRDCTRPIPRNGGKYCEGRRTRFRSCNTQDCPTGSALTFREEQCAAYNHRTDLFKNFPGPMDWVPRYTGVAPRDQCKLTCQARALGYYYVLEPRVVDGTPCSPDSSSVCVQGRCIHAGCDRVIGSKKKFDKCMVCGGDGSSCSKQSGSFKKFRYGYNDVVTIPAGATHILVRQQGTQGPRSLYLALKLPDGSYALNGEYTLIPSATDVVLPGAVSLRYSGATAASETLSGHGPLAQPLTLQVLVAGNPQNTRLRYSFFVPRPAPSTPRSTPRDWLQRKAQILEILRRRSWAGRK
T2 sequence (F1SHP0 whole entry): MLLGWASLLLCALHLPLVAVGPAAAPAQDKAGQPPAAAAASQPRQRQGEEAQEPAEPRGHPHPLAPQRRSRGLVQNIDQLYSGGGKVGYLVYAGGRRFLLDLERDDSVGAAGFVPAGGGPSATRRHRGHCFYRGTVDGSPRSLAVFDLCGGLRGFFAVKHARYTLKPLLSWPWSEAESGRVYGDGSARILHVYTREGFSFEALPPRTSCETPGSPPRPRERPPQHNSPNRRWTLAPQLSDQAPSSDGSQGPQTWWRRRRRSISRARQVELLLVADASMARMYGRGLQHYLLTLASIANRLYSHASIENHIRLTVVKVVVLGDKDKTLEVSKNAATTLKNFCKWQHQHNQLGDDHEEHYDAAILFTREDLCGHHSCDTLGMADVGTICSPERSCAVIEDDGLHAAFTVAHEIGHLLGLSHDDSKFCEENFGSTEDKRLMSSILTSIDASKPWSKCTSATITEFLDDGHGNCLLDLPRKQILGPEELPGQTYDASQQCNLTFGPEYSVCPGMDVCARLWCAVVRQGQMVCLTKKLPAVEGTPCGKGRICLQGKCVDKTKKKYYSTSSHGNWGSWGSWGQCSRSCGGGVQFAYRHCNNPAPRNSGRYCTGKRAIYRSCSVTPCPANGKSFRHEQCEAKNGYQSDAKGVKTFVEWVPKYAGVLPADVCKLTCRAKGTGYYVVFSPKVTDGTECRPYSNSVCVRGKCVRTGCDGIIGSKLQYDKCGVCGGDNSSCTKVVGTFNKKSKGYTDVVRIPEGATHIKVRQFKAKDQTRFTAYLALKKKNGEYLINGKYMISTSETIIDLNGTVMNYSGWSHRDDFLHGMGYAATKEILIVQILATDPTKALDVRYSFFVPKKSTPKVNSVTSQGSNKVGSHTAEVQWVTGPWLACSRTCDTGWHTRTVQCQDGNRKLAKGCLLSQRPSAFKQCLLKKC

[1] = target: Disintegrin and metalloproteinase domain-containing protein 17 (Homo sapiens, UniProt P78536); test: Inhibition of TACE in human mononuclear cells assessed as inhibition of LPS-induced TNF-alpha production measured after 4 hrs in presence of LPS by ELISA; type: cell-based
Disintegrin and metalloproteinase domain-containing protein 17, sequence (P78536 whole entry, the tested form may be a part): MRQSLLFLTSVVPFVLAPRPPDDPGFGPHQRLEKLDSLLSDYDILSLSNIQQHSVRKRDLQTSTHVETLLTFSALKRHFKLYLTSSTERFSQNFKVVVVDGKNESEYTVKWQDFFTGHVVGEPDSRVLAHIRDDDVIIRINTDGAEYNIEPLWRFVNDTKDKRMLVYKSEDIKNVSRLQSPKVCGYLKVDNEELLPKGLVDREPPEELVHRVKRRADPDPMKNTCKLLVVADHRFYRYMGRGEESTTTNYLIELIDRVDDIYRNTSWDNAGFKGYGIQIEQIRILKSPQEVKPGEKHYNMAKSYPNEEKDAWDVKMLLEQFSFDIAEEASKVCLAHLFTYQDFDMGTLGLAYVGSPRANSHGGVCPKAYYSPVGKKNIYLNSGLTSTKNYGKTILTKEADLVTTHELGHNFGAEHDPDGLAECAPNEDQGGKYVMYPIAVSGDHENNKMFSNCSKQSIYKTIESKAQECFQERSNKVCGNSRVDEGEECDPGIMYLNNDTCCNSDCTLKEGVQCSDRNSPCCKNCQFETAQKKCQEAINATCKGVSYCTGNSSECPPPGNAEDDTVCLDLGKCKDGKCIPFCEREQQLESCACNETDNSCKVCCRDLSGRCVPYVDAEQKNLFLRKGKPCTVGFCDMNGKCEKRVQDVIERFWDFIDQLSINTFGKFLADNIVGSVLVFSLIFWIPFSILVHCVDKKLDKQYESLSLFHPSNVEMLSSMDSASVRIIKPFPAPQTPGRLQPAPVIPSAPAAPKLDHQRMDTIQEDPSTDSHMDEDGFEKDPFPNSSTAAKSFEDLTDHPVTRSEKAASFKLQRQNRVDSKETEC

Row | IC50 (Interstitial collagenase) | IC50 (Collagenase 3) | IC50 (Aggrecanase) | IC50 [1] | Compound
1 | 200 to 1000 nM | < 10 nM | < 10 nM | 20000 to 40000 nM | CC1(C)C[C@@H](O)CN(S(=O)(=O)c2ccc(OCc3ccc(Cl)cc3Cl)cc2)[C@H]1C(=O)NO
2 | 20 to 200 nM | – | 10 to 20 nM | 20000 to 40000 nM | C[C@@]1(O)CCCN(S(=O)(=O)c2ccc(OCc3ccccc3F)cc2)[C@H]1C(=O)NO
3 | – | < 10 nM | < 10 nM | < 10000 nM | C[C@@]1(O)CCCN(S(=O)(=O)c2ccc(OCc3ccccc3Cl)cc2)[C@H]1C(=O)NO
4 | – | < 10 nM | 10 to 20 nM | < 10000 nM | Cc1ccc(F)cc1COc1ccc(S(=O)(=O)N2CCC[C@@](C)(O)[C@@H]2C(=O)NO)cc1
5 | 200 to 1000 nM | < 10 nM | < 10 nM | < 10000 nM | Cc1ccccc1COc1ccc(S(=O)(=O)N2CCC[C@@](C)(O)[C@@H]2C(=O)NO)cc1
6 | 200 to 1000 nM | < 10 nM | < 10 nM | 10000 to 20000 nM | C[C@@]1(O)CCCN(S(=O)(=O)c2ccc(OCc3ccc(F)cc3Cl)cc2)[C@H]1C(=O)NO
7 | 200 to 1000 nM | < 10 nM | < 10 nM | < 10000 nM | Cc1c(F)cccc1COc1ccc(S(=O)(=O)N2C[C@H](O)CC(C)(C)[C@@H]2C(=O)NO)cc1
8 | 200 to 1000 nM | < 10 nM | < 10 nM | < 10000 nM | Cc1cc(F)ccc1COc1ccc(S(=O)(=O)N2C[C@H](O)CC(C)(C)[C@@H]2C(=O)NO)cc1
9 | > 1000 nM | < 10 nM | 10 to 20 nM | < 10000 nM | Cc1c(F)cccc1COc1ccc(S(=O)(=O)N2CCC[C@@](C)(O)[C@@H]2C(=O)NO)cc1
10 | – | < 10 nM | < 10 nM | < 10000 nM | Cc1cc(F)ccc1COc1ccc(S(=O)(=O)N2CCC[C@@](C)(O)[C@@H]2C(=O)NO)cc1
11 | 200 to 1000 nM | < 10 nM | 10 to 20 nM | < 10000 nM | CC1(C)C[C@@H](O)CN(S(=O)(=O)c2ccc(OCc3ccccc3Br)cc2)[C@H]1C(=O)NO
12 | 200 to 1000 nM | < 10 nM | < 10 nM | 10000 to 20000 nM | CC1(C)C[C@@H](O)CN(S(=O)(=O)c2ccc(OCc3ccc(F)cc3Cl)cc2)[C@H]1C(=O)NO
13 | – | – | – | 3000 nM | NS(=O)(=O)c1ccc(CCNC(=O)[C@H](CC2CCCCC2)NC(=O)[C@H](CCCc2ccccc2)CC(=O)NO)cc1
14 | > 1000 nM | 20 to 200 nM | < 10 nM | < 10000 nM | CCc1ccccc1COc1ccc(S(=O)(=O)N2CCN(C(=O)NC)[C@@H](C)[C@@H]2C(=O)NO)cc1
15 | > 1000 nM | 10 to 20 nM | < 10 nM | < 10000 nM | Cc1cc(F)ccc1COc1ccc(S(=O)(=O)N2CC(=O)N[C@@H](C)[C@@H]2C(=O)NO)cc1
16 | 200 to 1000 nM | < 10 nM | 10 to 20 nM | < 10000 nM | Cc1ccccc1COc1ccc(S(=O)(=O)N2CCC[C@](C)(O)[C@@H]2C(=O)NO)cc1
17 | 200 to 1000 nM | < 10 nM | < 10 nM | 10000 to 20000 nM | C[C@@]1(O)CCCN(S(=O)(=O)c2ccc(OCc3ccc(Cl)cc3Cl)cc2)[C@H]1C(=O)NO
18 | 200 to 1000 nM | < 10 nM | 10 to 20 nM | 10000 to 20000 nM | CNC(=O)N1CCN(S(=O)(=O)c2ccc(OCc3ccc(F)cc3F)cc2)[C@@H](C(=O)NO)[C@@H]1C
19 | 200 to 1000 nM | < 10 nM | 10 to 20 nM | 10000 to 20000 nM | CC1(C)C[C@@H](O)CN(S(=O)(=O)c2ccc(OCc3cc(Cl)ccc3F)cc2)[C@H]1C(=O)NO
20 | 200 to 1000 nM | < 10 nM | 10 to 20 nM | 10000 to 20000 nM | C[C@@]1(O)CCCN(S(=O)(=O)c2ccc(OCc3ccc(F)cc3F)cc2)[C@H]1C(=O)NO
21 | 20 to 200 nM | < 10 nM | < 10 nM | 10000 to 20000 nM | CC1(C)C[C@@H](O)CN(S(=O)(=O)c2ccc(OCc3ccc(F)cc3)cc2)[C@H]1C(=O)NO
22 | > 1000 nM | 20 to 200 nM | < 10 nM | < 10000 nM | Cc1ccccc1COc1ccc(S(=O)(=O)N2CCN(C(=O)CN)[C@@H](C)[C@@H]2C(=O)NO)cc1
23 | > 1000 nM | 10 to 20 nM | < 10 nM | < 10000 nM | Cc1ccc(F)cc1COc1ccc(S(=O)(=O)N2CC(=O)N[C@@H](C)[C@@H]2C(=O)NO)cc1
24 | > 1000 nM | 20 to 200 nM | 10 to 20 nM | 10000 to 20000 nM | Cc1ccc(Cl)cc1COc1ccc(S(=O)(=O)N2C[C@H](O)CC(C)(C)[C@@H]2C(=O)NO)cc1
25 | > 1000 nM | < 10 nM | < 10 nM | < 10000 nM | CNC(=O)N1CCN(S(=O)(=O)c2ccc(OCc3cc(F)ccc3C)cc2)[C@@H](C(=O)NO)[C@@H]1C
26 | – | 1 nM | – | – | CNC(=O)[C@H](Cc1ccc(OC)cc1)NC(=O)[C@@H](CC(=O)NO)CC(C)C
